Reference: ChEMBL document CHEMBL1123962, “Chemical aspects of metoprolol metabolism. Asymmetric synthesis and absolute configuration of the 3-[4-(1-hydroxy-2-methoxyethyl)phenoxy]-1-(isopropylamino)-2-propanols , the diastereomeric benzylic hydroxylation metabolites” (J Med Chem, 1988)

Columns and labels:
Rattus norvegicus [1] = species: Rattus norvegicus; test: Stereoselectivity in presence of rat liver microsomes; format: functional
Rattus norvegicus [2] = species: Rattus norvegicus; test: Product stereoselectivity in presence of rat liver microsomes; format: functional

Structure (SMILES)	Activity (Rattus norvegicus [1]) [%]	Activity (Rattus norvegicus [2]) [%]
COCCc1ccc(OCC(O)CNC(C)C)cc1 (racemic)	93.2	–
COCCc1ccc(OC[C@@H](O)CNC(C)C)cc1	–	96.3
COCCc1ccc(OC[C@H](O)CNC(C)C)cc1	90.4	–
